Measurements: patent US20260355097A1, “MICROBIOME FRIENDLY SUBSTANCES AND MICROBIOME FRIENDLY COSMETIC FORMULATIONS” (BASF SE, priority 2023, published 2026)
Where a name gives a salt, the structure may show the parent alone.

System: Staphylococcus aureus, Staphylococcus epidermidis, Malassezia furfur
Assay: Lowest MIC over the microorganisms tested
Format: cell-based
Details: lowest MIC value obtained over the tested microorganisms
Procedure: Minimal Inhibitory Concentration tests are tests typically used to measure growth inhibition by a substance. MICs are defined as the lowest test concentrations of the test substance at which growth of specific microorganisms are inhibited.
In the present case predefined dilutions of the test substance in the appropriate culture medium were prepared and inoculated with the microorganism of interest. After incubation, the test organisms were cultured over a time-period and under conditions normally allowing growth of the microorganism. Vehicle controls (vehicle=solvent used, e. g. water) were also assessed to determine growth without the test substance. The organisms of interest tested were the representative strains S. aureus (found on the skin, often a pathogen), S. epidermidis and Malassezia furfur. The higher the MIC value, the less inhibition of growth is observed. In the following results the test concentrations are given as percent of active substance content.
For each substance the lowest MIC value obtained determines whether this substance in useful as microbiome friendly cosmetic ingredient. A substance is useful as microbiome friendly cosmetic ingredient, if this lowest MIC is not lower than a threshold value. This threshold value depends on the type of the substance (solubilizer, emulsifier etc.) and is related to the amount in which these types of substances are generally used in common cosmetic formulations.

Compound | lowest MIC [% by weight]
OCCCCO [1.4 Butandiol, 1,4 Butandiol] | >1
CC(O)CCO (stereo not drawn) [Butylene Glycol, 1,3-Butanediol] | 20.00
OCC(O)CO [Glycerin] | 20.00
CCCCCCCC/C=C\CCCCCCCC(=O)OCC(O)CO (stereo not drawn) [Glyceryl Oleate] | >2
CCCCCCCCCCCCCCCCCC(=O)OCC(O)CO.O=C(O)CC(O)(CC(=O)O)C(=O)O (stereo not drawn) [Glyceryl Stearate Citrate] | >3
CCCCCCCCCCCCCCCCOP(=O)([O-])[O-].[K+].[K+] [Potassium Cetyl Phosphate] | 1.00
O=C(O)c1ccccc1 [Sodium Benzoate] | 0.25
CCOC(=O)CC(O)(CC(=O)OCC)C(=O)OCC [Triethyl Citrate] | 1
CCCCC/C=C\C/C=C\CCCCCCCC(=O)OCC [ethyl linoleate] | >1
Conjugated Linoleic Acid | >1
Disodium Cetearyl Sulfosuccinate | 0.05
Sodium Cetearyl Sulfate | 0.08
